Test results published in PubChem BioAssay (NCI).
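Cultured in 96-well plates, cells were exposed to test compound for 48 hours across five concentrations. TGI denotes the concentration required for complete inhibition of growth.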 Where a SMILES comes first, the peptide text is derived from it. The star is where a group is joined. Boc = CC(C)(C)OC(=O)*; OBn = c1ccc(CO*)cc1

Key:
Test in all cases: NCI tumour cell line growth inhibition, 48 h
SK-MEL-2 melanoma = tested on: SK-MEL-2 melanoma
SF-295 CNS = tested on: SF-295 CNS
PC-3 prostate = tested on: PC-3 prostate
U251 CNS = tested on: U251 CNS
A549 NSCLC = tested on: A549 NSCLC
SK-MEL-28 melanoma = tested on: SK-MEL-28 melanoma
HOP-92 NSCLC = tested on: HOP-92 NSCLC
NCI-H460 lung = tested on: NCI-H460 lung
KM12 colon = tested on: KM12 colon
A498 renal = tested on: A498 renal
CCRF-CEM leukemia = tested on: CCRF-CEM leukemia
SF-268 CNS = tested on: SF-268 CNS
IGROV1 ovarian = tested on: IGROV1 ovarian
MDA-N = tested on: MDA-N
SW-620 colon = tested on: SW-620 colon
SK-OV-3 ovarian = tested on: SK-OV-3 ovarian
HL-60(TB) leukemia = tested on: HL-60(TB) leukemia
MDA-MB-231 breast = tested on: MDA-MB-231 breast
OVCAR-4 ovarian = tested on: OVCAR-4 ovarian
786-0 renal = tested on: 786-0 renal

Measured: TGI

O=c1[nH]c(-c2ccccc2)nc2c1sc1nc3ccccc3n12
> 100 µM: all assays above

CCOC(=O)Nc1nn(C)c(=NCc2ccccc2)s1
not listed: SF-268 CNS
> 100 µM: all other assays above

CC(C)/C(Cl)=N\OC(=O)Nc1ccc(F)cc1F
32.8 µM: U251 CNS
> 21.7 µM: CCRF-CEM leukemia
25.4 µM: SK-MEL-28 melanoma
0.626 µM: HL-60(TB) leukemia
3.31 µM: SW-620 colon
3.61 µM: HOP-92 NSCLC
30.9 µM: IGROV1 ovarian
13.3 µM: 786-0 renal
10.3 µM: OVCAR-4 ovarian
31.6 µM: PC-3 prostate
35.1 µM: KM12 colon
30.8 µM: SK-OV-3 ovarian
6.34 µM: MDA-MB-231 breast
34.6 µM: A549 NSCLC
28.2 µM: SK-MEL-2 melanoma
31.1 µM: A498 renal
22.7 µM: MDA-N
38.9 µM: SF-268 CNS
28.3 µM: SF-295 CNS
43.1 µM: NCI-H460 lung

COc1cccc2c1C(=O)c1ccc3cc(CCl)cc(O)c3c1C2=O
0.432 µM: 786-0 renal
0.293 µM: SW-620 colon
1.7 µM: A498 renal
0.339 µM: KM12 colon
0.765 µM: MDA-N
1.83 µM: SK-OV-3 ovarian
1.04 µM: SK-MEL-28 melanoma
1.67 µM: U251 CNS
0.35 µM: MDA-MB-231 breast
1.36 µM: A549 NSCLC
0.551 µM: HL-60(TB) leukemia
1.98 µM: CCRF-CEM leukemia
1.54 µM: IGROV1 ovarian
0.973 µM: PC-3 prostate
1.73 µM: HOP-92 NSCLC
1.1 µM: SK-MEL-2 melanoma
0.768 µM: NCI-H460 lung
1.42 µM: SF-268 CNS
2.23 µM: SF-295 CNS

NC(=O)NC(=O)c1cccc(NC(=O)CF)c1
> 100 µM: all assays above

CCCCOCCOC1=CC(=O)c2c(O)ccc(O)c2C1=O
3.26 µM: SK-MEL-2 melanoma
3.35 µM: IGROV1 ovarian
4.04 µM: CCRF-CEM leukemia
3.65 µM: SF-268 CNS
3.14 µM: KM12 colon
3.85 µM: MDA-MB-231 breast
4.44 µM: HOP-92 NSCLC
3.43 µM: NCI-H460 lung
2.99 µM: HL-60(TB) leukemia
3 µM: SK-MEL-28 melanoma | A498 renal
3.02 µM: SF-295 CNS
> 10 µM: SK-OV-3 ovarian
3.07 µM: U251 CNS
6.69 µM: PC-3 prostate
2.84 µM: SW-620 colon
3.41 µM: A549 NSCLC
0.341 µM: MDA-N
3.33 µM: OVCAR-4 ovarian
3.03 µM: 786-0 renal

CCOc1cc2c(cc1OC(C)=O)C(=O)CC[C@H]1C3CC[C@H](OC(C)=O)[C@@]3(C)CC[C@H]21 (some centres undefined)
not listed: IGROV1 ovarian
> 100 µM: all other assays above

C/C(CC1SCCCS1)=C(/C)CC1SCCCS1
not listed: U251 CNS | HOP-92 NSCLC | SK-OV-3 ovarian
> 100 µM: all other assays above

Nc1ncnc2c1cnn2Cc1cn(COCC(O)CO)nn1 (centres undefined)
34.9 µM: SF-268 CNS
not listed: NCI-H460 lung
> 100 µM: all other assays above

CC(C)(C)OC(=O)N/N=C(/N)Cc1ccccc1
not listed: NCI-H460 lung
> 100 µM: all other assays above

COC(=O)[C@@]12C(=O)C(C)C(=O)[C@]1(C)C(C)=C[C@H]1[C@]3(C=O)CC[C@H](OC(C)=O)C(C)(C)[C@H]3CC[C@@]12C (some centres undefined)
52.3 µM: HL-60(TB) leukemia
63.8 µM: CCRF-CEM leukemia
not listed: IGROV1 ovarian
> 100 µM: all other assays above

Cn1cnc(N2CCCC2)c(C#N)c1=O
not listed: SK-OV-3 ovarian
> 100 µM: all other assays above

CCCCCC[C@H]1C(=O)O[C@H](C)[C@H](NC(=O)c2cccc(NC=O)c2OC)C(=O)O[C@@H](C)[C@@H]1OC(=O)CC(C)C (tested in a mixture with another compound)
91.7 µM: MDA-MB-231 breast
47.2 µM: A498 renal
81.2 µM: HOP-92 NSCLC
24.9 µM: OVCAR-4 ovarian
21.4 µM: A549 NSCLC
34.1 µM: U251 CNS
85.3 µM: CCRF-CEM leukemia
39.2 µM: SK-OV-3 ovarian
not listed: IGROV1 ovarian
> 100 µM: all other assays above

COc1ccc(C(=O)/C=C/c2cccnc2)cc1OC
27.7 µM: A549 NSCLC
27.3 µM: SK-MEL-2 melanoma
28.6 µM: SK-OV-3 ovarian
6.01 µM: HL-60(TB) leukemia
23.8 µM: MDA-MB-231 breast
> 100 µM: CCRF-CEM leukemia
28 µM: PC-3 prostate
25.6 µM: MDA-N
33.1 µM: SK-MEL-28 melanoma
25.7 µM: OVCAR-4 ovarian
27.8 µM: A498 renal
26.3 µM: SF-295 CNS
21.9 µM: IGROV1 ovarian
26.7 µM: HOP-92 NSCLC | SF-268 CNS
14.1 µM: 786-0 renal
16.7 µM: U251 CNS

Cc1n[nH]c(=O)n1/N=C\CC/C=N\n1c(C)n[nH]c1=O
not listed: NCI-H460 lung
> 100 µM: all other assays above

COC(=O)C1(Cc2ccc3c(c2)CCC3)Cc2ccc3c(c2C1)CCC3 (centres undefined)
72.2 µM: A498 renal
54 µM: KM12 colon
99.1 µM: OVCAR-4 ovarian
69.7 µM: SW-620 colon
74.6 µM: IGROV1 ovarian
97.6 µM: 786-0 renal
60.7 µM: SF-295 CNS
41 µM: MDA-N
45 µM: MDA-MB-231 breast
98.1 µM: HOP-92 NSCLC
73.2 µM: NCI-H460 lung
55.9 µM: PC-3 prostate
37.1 µM: U251 CNS
not listed: SK-MEL-2 melanoma
> 100 µM: all other assays above

O=C1/C(=C/c2c(Cl)[nH]c3ccccc23)c2ccccc2N1c1ccccc1
14.2 µM: SK-OV-3 ovarian
23.8 µM: SK-MEL-28 melanoma
41.7 µM: SW-620 colon
40.8 µM: A498 renal
19.7 µM: KM12 colon
31.8 µM: HOP-92 NSCLC
9.57 µM: SK-MEL-2 melanoma
14.4 µM: NCI-H460 lung
29.6 µM: MDA-MB-231 breast
19.4 µM: PC-3 prostate
31.9 µM: CCRF-CEM leukemia
> 100 µM: A549 NSCLC
39.1 µM: IGROV1 ovarian
33.2 µM: SF-268 CNS
22.9 µM: U251 CNS
3.8 µM: MDA-N
13.9 µM: HL-60(TB) leukemia
8.54 µM: SF-295 CNS
25.4 µM: 786-0 renal

CC(C)CC(NC(=O)C(CCI)Cc1ccccc1)C(=O)Nc1ccccc1 (centres undefined)
64.6 µM: HL-60(TB) leukemia
not listed: SF-268 CNS
> 100 µM: all other assays above

CC(NC(=O)C(Cc1ccccc1)NC(=O)C(Cc1ccccc1)NC(=O)OC(C)(C)C)C(=O)OCc1ccccc1 (stereo not drawn) (Boc-Phe-Phe-Ala-OBn; configuration not given here)
81.2 µM: HOP-92 NSCLC
not listed: SK-MEL-28 melanoma | OVCAR-4 ovarian
> 100 µM: all other assays above

O=C1NC(=O)C(COCc2ccccc2)C2=C1SCCC2 (centres undefined)
not listed: SK-OV-3 ovarian
> 100 µM: all other assays above

CC1=N[C@](C)(C2CC3C=CC2C3=O)COC1=O (some centres undefined)
not listed: SK-MEL-2 melanoma
> 100 µM: all other assays above

COC(C)(C)CCc1[nH]c2ccccc2c1CC(=O)NCCc1cncn1C
not listed: SF-295 CNS
> 100 µM: all other assays above

COC(=O)C1CCC(=O)N1C(c1ccccc1)c1cc(OC)c(OC)c(OC)c1 (centres undefined)
58.8 µM: MDA-N
57.8 µM: HL-60(TB) leukemia
not listed: SK-MEL-2 melanoma
> 100 µM: all other assays above

c1ccc(C2OCC(OC3CCCCO3)CO2)cc1 (centres undefined)
not listed: KM12 colon | CCRF-CEM leukemia
> 100 µM: all other assays above
